Assay results as given in patent publication US20090075397A1, “Method for characterizing sugar-binding interactions of biomolecules” (Academia Sinica, priority 2007, published 2009).

T1: lectin UEA-1 (Ulex europaeus, UniProt P22972)
T1 construct: purchased EY Labs, Inc
T1 sequence (P22972 1-243): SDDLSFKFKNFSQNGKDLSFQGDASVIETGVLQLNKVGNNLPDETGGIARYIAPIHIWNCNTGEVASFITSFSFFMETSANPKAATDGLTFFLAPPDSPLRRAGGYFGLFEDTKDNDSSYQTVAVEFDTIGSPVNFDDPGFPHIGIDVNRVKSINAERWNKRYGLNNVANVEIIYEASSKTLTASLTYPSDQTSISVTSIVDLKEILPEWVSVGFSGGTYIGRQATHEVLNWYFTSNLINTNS


What was measured:
[1] = ALPHAScreen profiling of lectin binding specificities with biotinylated PAA-sugars; settings: for Binding specificities: Table 2 (SI), examined lectins
anti-Lex antibody = assay: ALPHAScreen sugar/protein binding assay, sugar on donor beads, antibody on acceptor beads; settings: sugar linked to streptavidin donor beads
lectin UEA-1 = target: T1, lectin UEA-1; assay: ALPHAScreen sugar/protein binding assay, sugar on donor beads, lectin on acceptor beads; settings: sugar linked to streptavidin donor beads, UEA-1 on acceptor beads
[2] = test system: recombinant hemagglutinin (HA) of H1N1 (A/Beijing/262/95); type: binding, influenza virus H1N1 (A/Beijing/262/95)
[3] = test system: H1N1 virus (A/Beijing/262/95); type: binding, influenza virus H1N1 (A/Beijing/262/95); settings: virus particles on acceptor beads, FIG. 5A
[4] = test system: H3N2 virus (A/Panama/2007/99); type: binding, influenza virus H3N2 (A/Panama/2007/99); settings: virus particles on acceptor beads, FIG. 5B

Molecule	recognition by HA of H1N1 (A/Beijing/262/95) [2]	recognition by H1N1 virus (A/Beijing/262/95) [3]	also measured
SBA: lectin of Glycine max			Binding specificities [1]: GalNAc/Gal
Galβ1-4(Fucα1-3)GlcNAc (Le^x) [Glycan No. 33]			binding signal with anti-Lex antibody (anti-Lex antibody): able to produce signals
α-L-Fuc [Glycan No. 6]			binding signal with lectin UEA-1 (lectin UEA-1): able to produce signals
CC(=O)N[C@H]1C(O)O[C@H](CO[C@]2(C(=O)O)C[C@H](O)[C@@H](NC(=O)CO)[C@H]([C@H](O)[C@H](O)CO)O2)[C@H](O)[C@@H]1O (stereo partly drawn) [Glycan No. 22, NeuGcα2-6GalNAc]	do not recognize	do not recognize	
(NeuAcα2-8)5-6 [Glycan No. 52]	do not recognize	do not recognize	recognition by H3N2 virus (A/Panama/2007/99) [4]: accepted
CC(=O)N[C@H]1[C@H]([C@H](O)[C@H](O)CO)O[C@@](O[C@H]2[C@@H](O)[C@@H](CO)OC(O)[C@@H]2NC(C)=O)(C(=O)O)C[C@@H]1O (stereo partly drawn) [Glycan No. 27, NeuAcα2-3GalNAc]	do not recognize	do not recognize	
PNA: lectin of Arachis hypogaea (protein, UniProt P02872 24-273, looked up) Galactose-binding lectin: AETVSFNFNSFSEGNPAINFQGDVTVLSNGNIQLTNLNKVNSVGRVLYAMPVRIWSSATGNVASFLTSFSFEMKDIKDYDPADGIIFFIAPEDTQIPAGSIGGGTLGVSDTKGAGHFVGVEFDTYSNSEYNDPPTDHVGIDVNSVDSVKTVPWNSVSGAVVKVTVIYDSSTKTLSVAVTNDNGDITTIAQVVDLKAKLPERVKFGFSASGSLGGRQIHLIRSWSFTSTLITTTRRSIDNNEKKIMNMASA			Binding specificities [1]: Galβ1-3GalNAc; lectin sugar binding specificity ([1]; profiled with more than 50 biotinylated PAA-sugars, FIG. 2): binds to the Galb1-3GalNAc structure specifically
